In publication PMC10133546, “Simultaneous determination of multiple components in rat plasma by UHPLC-sMRM for pharmacokinetic studies after oral administration of Qingjin Yiqi Granules” (Frontiers in Pharmacology, 2023):
Like-named read-outs stand apart in the source and are kept apart here.

Experiments:
[1] = Pharmacokinetic study in rat plasma after oral administration of QJYQ (UHPLC-sMRM); type: in vivo, Sprague-Dawley rats
Procedure: Exion LC AD tandem Blueline 3500 triple quadrupole mass spectrometer (AB SCIEX, Framingham, MA, United States) was used to thirty-three compounds in rat plasma. […] The whole detailed parameters of sMRM were obtained in Supplementary Table S1.
Rat plasma (100 μL) was mixed with 10% formic acid (10 μL) and vortexed for 1 min at room temperature. ISs (10 μL) and methanol/acetonitrile (1/1, v/v) (400 μL) were added and vortexed for 5 min, then centrifuged for 10 min at 14,000 rpm and 4°C. The transported supernatant was condensed to dryness under the flow of nitrogen gas. The dried residue was reconstituted with 70% methanol (100 μL) by vortex-mixing for 5 min and centrifuging at 14,000 rpm for 10 min. Last, 2 μL of the solution were injected into the UHPLC-sMRM system.
The pharmacokinetic study was approved by the Animal Ethics Committee of Tianjin University of Traditional Chinese Medicine (TCM-LAEC2021228). Ten male Sprague-Dawley rats (weight 220–240 g) was kept at the animal center of Tianjin University of Traditional Chinese Medicine (Tianjin, China). […] The sample was transferred right away following a 10 min period of centrifugation at 7000 rpm and 4°C. All plasma samples were frozen and stored at −80°C.
All the pharmacokinetic parameters were calculated using the DAS 1.0 software (Drug and Statistics 1.0, Medical College of Wannan, China). Pharmacokinetic parameters include the maximum drug concentration in plasma (Cmax), the time to achieve maximum drug concentration (Tmax), the area under the plasma concentration-time curve (AUC), elimination half-life (T1/2), and mean residence time (MRT). The pharmacokinetic parameters were computed using the non-compartmental model. All data are expressed as mean ± standard deviation (SD). GraphPad Prism 8.0 (GraphPad Software Inc., La Jolla, CA, United States) software was used to draw the drug-time curve.

[2] = Stability of analytes in rat plasma (auto-sampler, freeze-thaw, room temperature, long-term); settings: for Room temperature for 24 h Accuracy (%): room temperature 24 h; for Freeze thaw cycles Accuracy (%): three freeze-thaw cycles; for −80°C for 1month Accuracy (%): −80°C 1 month; for Autosampler for 24 h Accuracy (%): autosampler 24 h
[3] = Stability of the working solution (4°C for 1 month); type: physicochemical

| Compound | Autosampler for 24 h Accuracy (%) ([2]; 100 ng/mL) | Room temperature for 24 h Accuracy (%) ([2]; 100 ng/mL) | Freeze thaw cycles Accuracy (%) ([2]; 100 ng/mL) | −80°C for 1month Accuracy (%) ([2]; 100 ng/mL) | Autosampler for 24 h Accuracy (%) ([2]; 500 ng/mL) | Freeze thaw cycles Accuracy (%) ([2]; 500 ng/mL) | −80°C for 1month Accuracy (%) ([2]; 500 ng/mL) | Working solution Accuracy (%) ([3]; 100 ng/mL) | AUC(0-t) ([1]; rat, in vivo, po, 3.15 g/kg) | AUC(0-∞) ([1]; rat, in vivo, po, 3.15 g/kg) | Cmax ([1]; rat, in vivo, po, 3.15 g/kg) | MRT (0-∞) ([1]; rat, in vivo, po, 3.15 g/kg) | MRT(0-t) ([1]; rat, in vivo, po, 3.15 g/kg) | T1/2 ([1]; rat, in vivo, po, 3.15 g/kg) | Working solution Accuracy (%) ([3]; 1.56 ng/mL) | Working solution Accuracy (%) ([3]; 12.5 ng/mL) | Working solution Accuracy (%) ([3]; 500 ng/mL) | further results |
| --- | --- | --- | --- | --- | --- | --- | --- | --- | --- | --- | --- | --- | --- | --- | --- | --- | --- | --- |
| COc1ccc(/C=C/C(=O)O)cc1O [isoferulic acid] | 88.3% | 87.5% | 86.2% | 85.5% | 104.0% | 95.6% | 106.0% | 95.7% |  |  |  |  |  |  |  |  |  | half-life ([1]; male, Sprague-Dawley, rat plasma, oral QJYQ 3.15 g/kg, n = 8, mean ± SD): 281 ± 24.6 min; AUC(0-t) ([1]; male, Sprague-Dawley, rat plasma, oral QJYQ 3.15 g/kg, n = 8, mean ± SD, read-out: AUC(0-t)): 347 ± 120 ng·h/mL; AUC(0-inf) ([1]; male, Sprague-Dawley, rat plasma, oral QJYQ 3.15 g/kg, n = 8, mean ± SD, read-out: AUC(0-∞)): 354 ± 132 ng·h/mL; Cmax ([1]; male, Sprague-Dawley, rat plasma, oral QJYQ 3.15 g/kg, n = 8, mean ± SD, read-out: Cmax): 235 ± 81.1 ng/mL; MRT inf ([1]; male, Sprague-Dawley, rat plasma, oral QJYQ 3.15 g/kg, n = 8, mean ± SD, read-out: MRT (0-∞)): 5.85 ± 3.26 h; MRT last ([1]; male, Sprague-Dawley, rat plasma, oral QJYQ 3.15 g/kg, n = 8, mean ± SD, read-out: MRT(0-t)): 5.25 ± 2.87 h; Room temperature for 24 h Accuracy (%) ([2]; 50 ng/mL): 108.0%; Freeze thaw cycles Accuracy (%) ([2]; 50 ng/mL): 95.7%; −80°C for 1month Accuracy (%) ([2]; 50 ng/mL): 90.8%; Autosampler for 24 h Accuracy (%) ([2]; 200 ng/mL): 102.0%; Room temperature for 24 h Accuracy (%) ([2]; 200 ng/mL): 87.2%; Working solution Accuracy (%) ([3]; 50 ng/mL): 100.0%; Working solution Accuracy (%) ([3]; 200 ng/mL): 104.0% |
| O=C(O)[C@H]1O[C@@H](Oc2cc(O)c3c(=O)cc(-c4ccc(O)cc4)oc3c2)[C@H](O)[C@@H](O)[C@@H]1O [apigenin-7-O-glucuronide] | 94.1% | 90.4% | 86.4% | 85.0% | 85.5% | 88.3% | 108.0% | 88.5% | 14603.11 ± 7523.95 ng·h/mL | 15028.42 ± 7667.50 ng·h/mL | 167.50 ± 108.49 ng/mL | 8.62 ± 1.65 h | 8.39 ± 1.62 h | 4.17 ± 1.51 h | 83.6% | 112.0% | 93.2% | MRT ([1]; rat, in vivo, po, 3.15 g/kg): greater than 8 h; Tmax ([1]; rat, in vivo, po, 3.15 g/kg): 4.65 ± 2.79 h; Autosampler for 24 h Accuracy (%) ([2]; 1.56 ng/mL): 103.0%; Room temperature for 24 h Accuracy (%) ([2]; 1.56 ng/mL): 114.0%; Freeze thaw cycles Accuracy (%) ([2]; 1.56 ng/mL): 109.0%; −80°C for 1month Accuracy (%) ([2]; 1.56 ng/mL): 104.0%; Autosampler for 24 h Accuracy (%) ([2]; 12.5 ng/mL): 93.2%; Room temperature for 24 h Accuracy (%) ([2]; 12.5 ng/mL): 92.2%; Freeze thaw cycles Accuracy (%) ([2]; 12.5 ng/mL): 85.6%; −80°C for 1month Accuracy (%) ([2]; 12.5 ng/mL): 86.0%; Room temperature for 24 h Accuracy (%) ([2]; 500 ng/mL): 104.0% |
| COc1cc(/C=C/C(=O)O)cc(OC)c1O [sinapic acid] |  |  |  |  |  |  |  | 94.2% | 86.98 ± 6.62 ng·h/mL | 86.99 ± 6.62 ng·h/mL | 26.77 ± 7.87 ng/mL | 6.28 ± 0.91 h | 6.28 ± 0.91 h | 2.20 ± 0.13 h | 100.0% | 90.2% | 87.0% |  |
